The subject of experiment [1] is Mycobacterium tuberculosis. The experiment is described as follows: Antitubercular activity against Mycobacterium tuberculosis H37Ra. The class given is functional.
Experiment [2] has as its system Staphylococcus aureus. As to the kind of experiment: Antibacterial activity against methicillin-resistant Staphylococcus aureus assessed as reduction in microbial growth after 12 hrs by broth microdilution method. The class given is functional.
For another experiment, the system named is Bacillus subtilis. The experiment is described as follows: Antibacterial activity against Bacillus subtilis BS01 assessed as reduction in microbial growth after 12 hrs by microbroth dilution method. It is filed as functional. (In general: In broth dilution the organism is exposed to a series of concentrations in liquid medium.)
In experiment [3] the test system is Bacillus amyloliquefaciens. As to the kind of experiment: Antibacterial activity against Bacillus amyloliquefaciens GDMCC 60233 assessed as reduction in microbial growth after 12 hrs by microbroth dilution method. It is filed as functional.
Experiment [4] addresses T1, Tyrosine-protein phosphatase non-receptor type 2 (Homo sapiens, UniProt P17706).
T1 sequence (P17706 whole entry): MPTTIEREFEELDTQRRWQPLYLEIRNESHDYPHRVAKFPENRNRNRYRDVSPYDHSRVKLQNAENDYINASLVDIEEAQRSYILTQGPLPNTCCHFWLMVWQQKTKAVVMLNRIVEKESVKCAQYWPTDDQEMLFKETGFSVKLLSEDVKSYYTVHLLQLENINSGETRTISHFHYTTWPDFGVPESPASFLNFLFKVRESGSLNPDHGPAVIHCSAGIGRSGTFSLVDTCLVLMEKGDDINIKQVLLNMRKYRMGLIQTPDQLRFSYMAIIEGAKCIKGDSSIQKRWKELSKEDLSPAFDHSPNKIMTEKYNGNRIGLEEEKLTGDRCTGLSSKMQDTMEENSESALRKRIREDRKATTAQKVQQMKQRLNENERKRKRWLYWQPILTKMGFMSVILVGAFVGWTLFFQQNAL
The experiment is described as follows: Inhibition of human TCPTP.

In another experiment the test system is Streptococcus agalactiae. As to the kind of experiment: Antibacterial activity against Streptococcus agalactiae ATCC 13813 assessed as reduction in microbial growth after 12 hrs by microbroth dilution method. The class given is functional.
In experiment [5] the test system is Escherichia coli. The experiment is described as follows: Antibacterial activity against Escherichia coli assessed as reduction in microbial growth after 12 hrs by broth microdilution method. It is filed as functional.
Experiment [6] deals with T2, Receptor-type tyrosine-protein phosphatase C (Homo sapiens, UniProt P08575).
T2 sequence (P08575 whole entry): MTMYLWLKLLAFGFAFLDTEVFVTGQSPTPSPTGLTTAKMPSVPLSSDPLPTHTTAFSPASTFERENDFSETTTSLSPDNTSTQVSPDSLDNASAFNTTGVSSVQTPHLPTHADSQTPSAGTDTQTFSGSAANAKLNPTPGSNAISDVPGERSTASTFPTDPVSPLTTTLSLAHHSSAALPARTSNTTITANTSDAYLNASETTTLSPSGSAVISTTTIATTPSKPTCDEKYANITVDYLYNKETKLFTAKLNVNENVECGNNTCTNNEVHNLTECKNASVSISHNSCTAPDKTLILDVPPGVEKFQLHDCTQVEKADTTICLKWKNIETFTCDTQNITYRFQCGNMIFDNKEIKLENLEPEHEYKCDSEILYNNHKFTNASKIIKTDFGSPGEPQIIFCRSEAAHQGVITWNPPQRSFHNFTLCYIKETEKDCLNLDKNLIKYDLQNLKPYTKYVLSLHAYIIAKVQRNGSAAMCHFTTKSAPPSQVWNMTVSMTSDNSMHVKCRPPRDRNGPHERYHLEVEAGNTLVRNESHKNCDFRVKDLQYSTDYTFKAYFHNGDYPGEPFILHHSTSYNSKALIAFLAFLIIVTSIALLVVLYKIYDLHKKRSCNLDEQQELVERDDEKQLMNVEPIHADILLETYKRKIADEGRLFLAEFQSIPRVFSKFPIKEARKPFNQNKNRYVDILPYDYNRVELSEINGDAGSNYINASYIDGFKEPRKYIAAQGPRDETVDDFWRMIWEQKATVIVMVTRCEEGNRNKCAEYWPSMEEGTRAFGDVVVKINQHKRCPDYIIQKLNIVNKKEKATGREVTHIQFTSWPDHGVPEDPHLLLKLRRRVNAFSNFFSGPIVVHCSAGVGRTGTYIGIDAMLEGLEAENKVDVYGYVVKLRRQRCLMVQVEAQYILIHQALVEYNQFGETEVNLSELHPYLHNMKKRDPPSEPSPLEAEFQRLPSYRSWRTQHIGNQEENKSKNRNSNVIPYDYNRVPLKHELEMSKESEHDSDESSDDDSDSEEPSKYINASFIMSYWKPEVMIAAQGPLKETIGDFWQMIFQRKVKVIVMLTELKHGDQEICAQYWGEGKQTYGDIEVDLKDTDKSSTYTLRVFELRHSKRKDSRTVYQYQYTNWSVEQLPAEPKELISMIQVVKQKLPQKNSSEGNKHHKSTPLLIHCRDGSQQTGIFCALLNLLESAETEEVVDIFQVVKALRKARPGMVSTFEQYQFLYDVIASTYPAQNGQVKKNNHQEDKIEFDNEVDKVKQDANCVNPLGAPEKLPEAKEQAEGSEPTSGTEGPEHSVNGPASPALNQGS
The experiment is described as follows: Inhibition of human CD45.

Experiment [7] deals with Escherichia coli. The experiment is described as follows: microbe, parasite or virus in culture. It is filed as functional. As to conditions: ATCC 25922, time 12 hrs.
Description: Antibacterial activity against Escherichia coli ATCC 25922 assessed as reduction in microbial growth after 12 hrs by microbroth dilution method
In experiment [8] the target is Tyrosine-protein phosphatase non-receptor type 6 (Homo sapiens, UniProt P29350). As to the kind of experiment: Inhibition of human SHP1.
Chain of Tyrosine-protein phosphatase non-receptor type 6 (P29350 whole entry): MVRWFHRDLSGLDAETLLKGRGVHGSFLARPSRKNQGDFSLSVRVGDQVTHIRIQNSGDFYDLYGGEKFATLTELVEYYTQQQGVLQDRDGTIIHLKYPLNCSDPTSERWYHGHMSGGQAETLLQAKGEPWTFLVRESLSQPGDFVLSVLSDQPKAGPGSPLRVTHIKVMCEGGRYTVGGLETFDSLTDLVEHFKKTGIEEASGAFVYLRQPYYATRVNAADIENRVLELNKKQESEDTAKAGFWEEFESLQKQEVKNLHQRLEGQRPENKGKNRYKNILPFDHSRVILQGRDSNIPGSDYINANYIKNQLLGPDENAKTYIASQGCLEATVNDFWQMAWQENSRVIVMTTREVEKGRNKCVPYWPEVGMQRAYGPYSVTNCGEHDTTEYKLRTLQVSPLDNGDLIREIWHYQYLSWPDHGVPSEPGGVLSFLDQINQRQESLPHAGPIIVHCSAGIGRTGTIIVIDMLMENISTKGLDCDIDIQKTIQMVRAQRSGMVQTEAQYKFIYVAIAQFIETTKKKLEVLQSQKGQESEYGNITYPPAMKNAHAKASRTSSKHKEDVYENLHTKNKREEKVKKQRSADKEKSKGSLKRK
The subject of experiment [9] is Staphylococcus aureus. As to the kind of experiment: Antibacterial activity against Staphylococcus aureus ATCC 6538 assessed as reduction in microbial growth after 12 hrs by microbroth dilution method. It is filed as functional.
For experiment [10], the target named is Receptor-type tyrosine-protein phosphatase F (Homo sapiens, UniProt P10586). As to the kind of experiment: Inhibition of human LAR.
Chain of Receptor-type tyrosine-protein phosphatase F (P10586 whole entry): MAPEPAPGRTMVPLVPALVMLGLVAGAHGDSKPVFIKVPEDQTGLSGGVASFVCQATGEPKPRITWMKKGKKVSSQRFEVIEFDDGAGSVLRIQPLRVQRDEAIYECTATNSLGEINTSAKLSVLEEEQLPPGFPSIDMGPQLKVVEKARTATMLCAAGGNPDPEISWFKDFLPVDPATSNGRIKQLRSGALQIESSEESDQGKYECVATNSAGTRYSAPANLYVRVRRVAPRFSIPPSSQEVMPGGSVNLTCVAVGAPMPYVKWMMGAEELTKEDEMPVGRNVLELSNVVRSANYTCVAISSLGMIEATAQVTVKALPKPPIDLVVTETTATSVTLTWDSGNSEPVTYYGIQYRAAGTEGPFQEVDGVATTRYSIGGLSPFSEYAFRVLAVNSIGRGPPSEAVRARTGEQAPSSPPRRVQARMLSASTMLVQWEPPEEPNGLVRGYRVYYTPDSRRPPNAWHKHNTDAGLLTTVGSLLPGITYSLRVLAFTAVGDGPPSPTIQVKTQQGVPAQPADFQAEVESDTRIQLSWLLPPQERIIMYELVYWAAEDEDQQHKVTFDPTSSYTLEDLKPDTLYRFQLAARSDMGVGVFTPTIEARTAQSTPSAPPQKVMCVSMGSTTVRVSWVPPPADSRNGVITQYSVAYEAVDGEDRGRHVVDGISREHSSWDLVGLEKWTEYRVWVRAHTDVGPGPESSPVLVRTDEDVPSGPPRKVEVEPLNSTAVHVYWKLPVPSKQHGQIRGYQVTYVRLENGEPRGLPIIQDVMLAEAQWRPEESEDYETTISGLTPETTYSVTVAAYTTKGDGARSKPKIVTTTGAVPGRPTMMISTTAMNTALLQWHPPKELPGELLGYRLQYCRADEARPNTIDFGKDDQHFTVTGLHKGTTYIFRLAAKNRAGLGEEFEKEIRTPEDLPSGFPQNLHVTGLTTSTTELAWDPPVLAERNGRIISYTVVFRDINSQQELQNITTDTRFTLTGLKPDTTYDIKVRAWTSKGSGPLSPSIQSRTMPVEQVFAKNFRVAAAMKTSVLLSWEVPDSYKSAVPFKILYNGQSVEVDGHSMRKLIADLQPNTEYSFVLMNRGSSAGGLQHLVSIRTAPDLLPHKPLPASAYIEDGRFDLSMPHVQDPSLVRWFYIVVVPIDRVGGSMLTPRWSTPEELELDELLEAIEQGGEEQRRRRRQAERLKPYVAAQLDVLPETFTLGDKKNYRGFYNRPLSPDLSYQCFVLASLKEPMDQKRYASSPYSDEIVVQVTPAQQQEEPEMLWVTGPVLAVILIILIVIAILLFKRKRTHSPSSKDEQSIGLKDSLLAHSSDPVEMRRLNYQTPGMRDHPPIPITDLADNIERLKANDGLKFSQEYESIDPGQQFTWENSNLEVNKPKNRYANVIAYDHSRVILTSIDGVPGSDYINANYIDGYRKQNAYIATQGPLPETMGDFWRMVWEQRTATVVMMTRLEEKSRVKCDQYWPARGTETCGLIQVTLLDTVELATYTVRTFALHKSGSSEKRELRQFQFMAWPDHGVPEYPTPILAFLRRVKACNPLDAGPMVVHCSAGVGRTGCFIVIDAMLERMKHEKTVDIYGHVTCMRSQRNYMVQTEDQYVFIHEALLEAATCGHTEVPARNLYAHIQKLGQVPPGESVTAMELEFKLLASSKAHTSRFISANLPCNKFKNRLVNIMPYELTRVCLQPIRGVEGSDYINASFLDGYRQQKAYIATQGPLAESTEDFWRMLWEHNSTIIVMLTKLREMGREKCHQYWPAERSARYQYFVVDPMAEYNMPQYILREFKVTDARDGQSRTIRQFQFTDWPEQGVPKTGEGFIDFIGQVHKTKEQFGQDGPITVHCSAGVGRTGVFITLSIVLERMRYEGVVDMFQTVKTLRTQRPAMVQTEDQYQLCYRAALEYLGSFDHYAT
The target of experiment [11] is T3, Tyrosine-protein phosphatase non-receptor type 1 (Homo sapiens, UniProt P18031).
T3 sequence (P18031 whole entry): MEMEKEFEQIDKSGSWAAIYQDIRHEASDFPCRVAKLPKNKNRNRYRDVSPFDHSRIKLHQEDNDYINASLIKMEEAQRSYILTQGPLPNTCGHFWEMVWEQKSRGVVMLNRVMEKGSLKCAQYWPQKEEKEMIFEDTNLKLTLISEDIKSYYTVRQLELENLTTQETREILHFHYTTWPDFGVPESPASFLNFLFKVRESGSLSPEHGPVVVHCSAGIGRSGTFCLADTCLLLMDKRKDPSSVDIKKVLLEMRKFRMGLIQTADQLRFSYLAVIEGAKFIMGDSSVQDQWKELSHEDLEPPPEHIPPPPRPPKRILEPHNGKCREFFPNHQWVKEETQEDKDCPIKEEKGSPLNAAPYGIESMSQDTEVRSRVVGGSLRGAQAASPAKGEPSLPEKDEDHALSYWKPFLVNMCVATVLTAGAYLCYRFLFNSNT
The experiment is described as follows: Inhibition of human PTP1B.

In experiment [12] the test system is Staphylococcus aureus. As to the kind of experiment: Antibacterial activity against methicillin-resistant Staphylococcus aureus assessed as reduction in microbial growth after 12 hrs by microbroth dilution method. The class given is functional.

≈ marks a conversion by molar mass, not a printed value.

The source of these data is ChEMBL document CHEMBL5120959, “Pyrrospirones K-Q, Decahydrofluorene-Class Alkaloids from the Marine-Derived Fungus Penicillium sp. SCSIO 41512” (J Nat Prod, 2022).

What is called IC50 is the concentration that gives 50% inhibition.

`C=C[C@H]1C=C[C@@H]2[C@@H]3[C@@H](Oc4ccc(cc4)C[C@@]4(O)C[C@H](C(=O)N4)C(=O)[C@@H]13)[C@@H]1CC[C@@H](C)C[C@@]21C` showed an MIC in experiment [1] of 0.78 µg/mL (≈ 1.69 µM).

With `CC1=C[C@@]2(C)[C@@H]3C(=O)[C@@]4(C[C@@H]2O)C(=O)NC(Cc2ccc(cc2)O[C@H]2[C@H]3[C@@H]1[C@]1(C)C[C@H](C)C[C@H](C)[C@@H]21)[C@H]4O`, the MIC in the experiment on Staphylococcus aureus [2] amounted to 2 µg/mL; in the experiment with Bacillus subtilis, 10 µg/mL; in experiment [3], 20 µg/mL; with Streptococcus agalactiae it was 10 µg/mL; in the experiment on Escherichia coli [5] it was 2 µg/mL; in the experiment with Escherichia coli [7], 5 µg/mL (≈ 9.62 µM). The MIC in the experiment on Staphylococcus aureus [9] and in the experiment with Staphylococcus aureus [12] was 10 µg/mL in each case. Besides, the IC50 in experiment [4] was > 200 µM; in [6], > 200 µM; in experiment [8], 200 µM; in experiment [10] it was > 200 µM; in [11], 100 µM.
